Patent publication US9932350B2, “Inhibitors of IRAK4 activity” (MERCK SHARP & DOHME CORP., priority 2014, dated 2018)

Target: GST tagged IRAK4 (Homo sapiens (Human), UniProt Q9NWZ3)
Experiment: IRAK4 Kinase Assay (IMAP fluorescence polarization)
Format: biochemical
Details: 0.5 nM GST tagged IRAK4, 100 μM ATP, 30 minutes at 25° C.
Description: The kinase activity of IRAK4 is determined by its ability to catalyze the phosphorylation of a fluorescent polypeptide substrate. The extent of phosphorylation is measured using the IMAP technology (Molecular Devices) where the phosphorylated fluorescent substrate binds to the large M(III)-based nanoparticles which reduces the rotational speed of the substrate and thus increases its fluorescent polarization (FP).
20 μL reaction mixture contains 10 mM TriHCl, pH 7.2, 0.5 nM GST tagged IRAK4 (SignalChem), 100 nM fluorescent peptide substrate (RP7030, Molecular Devices), 100 μM ATP, 1 mM DDT, 1 mM MgCl2, and 0.01% Tween 20. The reaction is initiated by the addition of ATP. After incubation for 30 minutes at 25° C., 60 μL of Progressive IMAP Reagent (Molecular Devices) is added to stop the reaction. Change in RP7030's FP is determined by a FP reader (Analyst HT, LJL BioSystems).

GST tagged IRAK4, sequence (Q9NWZ3 whole entry): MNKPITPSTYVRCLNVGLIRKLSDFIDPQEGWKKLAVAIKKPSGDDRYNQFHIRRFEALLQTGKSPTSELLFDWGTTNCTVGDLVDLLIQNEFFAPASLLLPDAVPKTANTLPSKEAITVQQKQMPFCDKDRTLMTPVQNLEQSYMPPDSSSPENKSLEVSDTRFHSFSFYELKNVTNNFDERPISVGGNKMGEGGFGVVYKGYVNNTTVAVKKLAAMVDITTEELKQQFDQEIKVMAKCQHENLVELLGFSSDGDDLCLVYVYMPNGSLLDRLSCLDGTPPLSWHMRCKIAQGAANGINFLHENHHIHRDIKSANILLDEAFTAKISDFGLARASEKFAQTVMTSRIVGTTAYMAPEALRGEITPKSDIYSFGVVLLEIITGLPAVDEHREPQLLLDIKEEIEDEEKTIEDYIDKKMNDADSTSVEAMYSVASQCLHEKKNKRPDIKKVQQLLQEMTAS

IC50 [µM]	SMILES
0.01	N#Cc1ccc2ncnc(N[C@H]3CC[C@H](N4CCN(C(=O)CC5COC5)CC4)CC3)c2c1 [Example 6-18, 4-({trans-4-[4-(oxetan-3-ylacetyl)piperazin-1-yl]cyclohexyl}amino) quinazoline-6-carbonitrile]
0.003	N#Cc1ccc2ncnc(N[C@H]3CC[C@H](N4CCN(C(=O)C5CC5)CC4)CC3)c2c1 [Example 6-1, 4-({Trans-4-[4-(cyclopropylcarbonyl)piperazin-1-yl]cyclohexyl}amino)quinazoline-6-carbonitrile]
0.098	C[C@]1(Nc2ncnc3ccc(C#N)cc23)CC[C@H](N2CCOCC2)CC1 [Example 7-1, 4-{[Trans-1-methyl-4-(morpholin-4-yl)cyclohexyl]amino}quinazoline-6-carbonitrile]
0.009	N#Cc1ccc2ncnc(N[C@H]3CC[C@H](N4CCN(C(=O)CC5CC5)CC4)CC3)c2c1 [Example 6-17, 4-({trans-4-[4-(cyclopropylacetyl)piperazin-1-yl]cyclohexyl}amino) quinazoline-6-carbonitrile]
0.01	N#Cc1ccc2ncnc(N[C@H]3CC[C@H](N4CCN(C(=O)C5CC(O)C5)CC4)CC3)c2c1 (stereo partly drawn) [Example 6-21, 4-[(trans-4-{4-[(3-hydroxycyclobutyl)carbonyl]piperazin-1-yl}cyclohexyl)amino] quinazoline-6-carbonitrile]
0.016	CC(F)(F)C(=O)N1CCN([C@H]2CC[C@H](Nc3ncnc4ccc(C#N)cc34)CC2)CC1 [Example 6-6, 4-({trans-4-[4-(2,2-difluoropropanoyl)piperazin-1-yl]cyclohexyl}amino) quinazoline-6-carbonitrile]
0.01	N#Cc1ccc2ncnc(N[C@H]3CC[C@H](N4CCN(C(=O)C5CC(F)C5)CC4)CC3)c2c1 (stereo partly drawn) [Example 6-13, 4-[(trans-4-{4-[(3-fluorocyclobutyl)carbonyl]piperazin-1-yl}cyclohexyl)amino] quinazoline-6-carbonitrile]
0.074	C[C@]1(Nc2ncnc3ccc(C#N)cc23)CC[C@H](N2CCC(F)CC2)CC1 [Example 7-2, 4-{[trans-4-(4-fluoropiperidin-1-yl)-1-methylcyclohexyl]amino} quinazoline-6-carbonitrile]

Further lines, the compound ahead of its results:

SMILES	IC50 [µM]
Brc1ccc2ncnc(N[C@H]3CC[C@H](N4CCOCC4)CC3)c2c1 [Example 2-2, 6-Bromo-N-[trans-4-(morpholin-4-yl)cyclohexyl]quinazolin-4-amine]	0.005
N#Cc1ccc2ncnc(N[C@H]3CC[C@H](N4CCCC(C(F)(F)F)C4)CC3)c2c1 (single isomer, unassigned) [Example 3-2, 4-({cis or trans-4-[(3R or S)-3-(trifluoromethyl)piperidin-1-yl]cyclohexyl}amino) quinazoline-6-carbonitrile]	0.033
N#Cc1ccc2ncnc(N[C@H]3CC[C@@H](N4CCC4)CC3)c2c1 [Example 3-6, 4-{[cis-4-(azetidin-1-yl)cyclohexyl]amino} quinazoline-6-carbonitrile]	0.768
COC1CN([C@H]2CC[C@H](Nc3ncnc4ccc(C#N)cc34)CC2)C1 [Example 3-29, 4-{[trans-4-(3-methoxyazetidin-1-yl)cyclohexyl]amino} quinazoline-6-carbonitrile]	0.011
N#Cc1ccc2ncnc(N[C@H]3CC[C@H](N4CCCC(CN5CCOCC5)C4)CC3)c2c1 (single isomer, unassigned) [Example 3-41, 4-({trans-4-[(3R or 3S)-3-(morpholin-4-ylmethyl)piperidin-1-yl]cyclohexyl}amino) quinazoline-6-carbonitrile]	0.07
CC1OCCN([C@H]2CC[C@H](Nc3ncnc4ccc(C#N)cc34)CC2)C1C (stereo partly drawn) [Example 3-7, 4-{[trans-4-(2,3-dimethylmorpholin-4-yl)cyclohexyl]amino} quinazoline-6-carbonitrile]	0.096
N#Cc1ccc2ncnc(N[C@H]3CC[C@H](N4CCOC(CF)C4)CC3)c2c1 (stereo partly drawn) [Example 3-27, 4-({trans-4-[2-(fluoromethyl)morpholin-4-yl]cyclohexyl}amino) quinazoline-6-carbonitrile]	0.008
CS(=O)(=O)C1CCN([C@H]2CC[C@H](Nc3ncnc4ccc(C#N)cc34)CC2)CC1 [Example 3-10, 4-({trans-4-[4-(methylsulfonyl)piperidin-1-yl]cyclohexyl}amino) quinazoline-6-carbonitrile]	0.011
N#Cc1ccc2ncnc(N[C@H]3CC[C@H](N4CCCC(CN5CCOCC5)C4)CC3)c2c1 (stereo partly drawn) [Example 3-46, 4-({trans-4-[3-(morpholin-4-ylmethyl)piperidin-1-yl]cyclohexyl}amino) quinazoline-6-carbonitrile]	0.007
N#Cc1ccc2ncnc(N[C@H]3CC[C@H](N4CCOC(C(F)(F)F)C4)CC3)c2c1 (single isomer, unassigned) [Example 3-49, 4-({trans-4-[(2R or 2S)-2-(trifluoromethyl)morpholin-4-yl]cyclohexyl}amino) quinazoline-6-carbonitrile]	0.131
N#Cc1ccc2ncnc(N[C@H]3CC[C@H](N4CC[C@@H](O)C4)CC3)c2c1 [Example 3-38, 4-({trans-4-[(3R)-3-hydroxypyrrolidin-1-yl]cyclohexyl}amino) quinazoline-6-carbonitrile]	0.015
N#Cc1cc2c(N[C@H]3CC[C@H](N4CCOCC4)CC3)ncnc2cc1F [Example 5-1, 7-Fluoro-4-{[trans-4-(morpholin-4-yl)cyclohexyl]amino}quinazoline-6-carbonitrile]	0.027
COCCN[C@H]1CC[C@H](Nc2ncnc3ccc(C#N)cc23)CC1 [Example 3-22, 4-({trans-4-[(2-methoxyethyl)amino]cyclohexyl}amino)quinazoline-6-carbonitrile]	0.016
CN(C)[C@H]1CC[C@H](Nc2ncnc3ccc(C#N)cc23)CC1 [Example 2-5, 4-{[trans-4-(dimethylamino)cyclohexyl]amino}quinazoline-6-carbonitrile]	0.007
N#Cc1ccc2ncnc(N[C@H]3CC[C@H](N4CCOC(CO)C4)CC3)c2c1 (single isomer, unassigned) [Example 3-12, 4-({trans-4-[(2R or 2S)-2-(hydroxymethyl)morpholin-4-yl]cyclohexyl}amino) quinazoline-6-carbonitrile]	0.006
COc1cc2ncnc(N[C@H]3CC[C@H](N(C)C)CC3)c2cc1OC [Example 2-3, trans-N′-(6,7-dimethoxyquinazolin-4-yl)-N,N-dimethylcyclohexane-1,4-diamine]	7.42
CC(C)Oc1ccc2ncnc(N[C@H]3CC[C@H](N4CCOCC4)CC3)c2c1 [Example 2-10, N-[trans-4-(morpholin-4-yl)cyclohexyl]-6-(propan-2-yloxy)quinazolin-4-amine]	0.082
N#Cc1ccc2ncnc(N[C@H]3CC[C@H](N4CCC5OCCC54)CC3)c2c1 (stereo partly drawn) [Example 3-39, 4-{[trans-4-(hexahydro-4H-furo[3,2-b]pyrrol-4-yl)cyclohexyl]amino} quinazoline-6-carbonitrile]	0.174
Clc1ccc2ncnc(N[C@H]3CC[C@H](N4CCOCC4)CC3)c2c1 [Example 2-13, 6-chloro-N-[trans-4-(morpholin-4-yl)cyclohexyl]quinazolin-4-amine]	0.006
N#Cc1ccc2ncnc(N[C@H]3CC[C@H](N4C5CCC4COC5)CC3)c2c1 [Example 3-47, 4-{[trans-4-(3-oxa-8-azabicyclo[3.2.1]oct-8-yl)cyclohexyl]amino} quinazoline-6-carbonitrile]	0.872
CN(C)[C@H]1CC[C@H](Nc2ncnc3ccc(OCCCC#N)cc23)CC1 [Example 2-16, 4-[(4-{[trans-4-(dimethylamino)cyclohexyl]amino}quinazolin-6-yl)oxy]butanenitrile]	0.734
CC1(C)CN([C@H]2CC[C@H](Nc3ncnc4ccc(C#N)cc34)CC2)CCO1 [Example 3-51, 4-{[trans-4-(2,2-dimethylmorpholin-4-yl)cyclohexyl]amino} quinazoline-6-carbonitrile]	0.089
N#Cc1ccc2ncnc(N[C@H]3CC[C@H](N4CCOC5CCCC54)CC3)c2c1 (stereo partly drawn) [Example 3-24, 4-({trans-4-[(4aS,7aS or 4aR,7aR)-hexahydrocyclopenta[b] [1,4]oxazin-4(4aH)-yl]cyclohexyl}amino) quinazoline-6-carbonitrile]	0.011
N#Cc1ccc2ncnc(N[C@H]3CC[C@H](N4CCN(C(=O)CF)CC4)CC3)c2c1 [Example 6-19, 4-({trans-4-[4-(fluoroacetyl)piperazin-1-yl]cyclohexyl}amino) quinazoline-6-carbonitrile]	0.023
CN(C)[C@H]1CC[C@H](Nc2ncnc3ccc(Br)cc23)CC1 [Example 2-6, trans-N′-(6-bromoquinazolin-4-yl)-N,N-dimethylcyclohexane-1,4-diamine]	0.009
N#Cc1ccc2ncnc(N[C@H]3CC[C@H](N4CCCC5COCCC54)CC3)c2c1 (stereo partly drawn) [Example 3-25, 4-{[trans-4-(hexahydro-2H-pyrano[4,3-b]pyridin-1(5H)-yl)cyclohexyl]amino} quinazoline-6-carbonitrile]	0.053
N[C@H]1CC[C@H](Nc2ncnc3ccc(Br)cc23)CC1 [Example 1-2, trans-N-(6-bromoquinazolin-4-yl)cyclohexane-1,4-diamine]	0.027
N#Cc1ccc2ncnc(N[C@H]3CC[C@H](NCC(F)(F)F)CC3)c2c1 [Example 3-21, 4-({trans-4-[(2,2,2-trifluoroethyl)amino]cyclo-hexyl}amino)quinazoline-6-carbonitrile]	0.512
